# Reference: patent publication US20130253179A1, “Functionalization Processes and Reactants Used in Such Processes Using an Isatoic Anhydride or a Derivative Thereof, Biological Molecules Thus Treated and Kits” (priority 2010, published 2013)
# Tested on: ORN with 27 bases in mixture with an ODN with 27 bases
# Test: Selective functionalisation, capture, cleaving and elution of an ORN from an ORN/ODN mixture (HPLC 260 nm)
# Details: injection 2, after two functionalisation/precipitation steps, 65° C. 1 h
# Method: We have a 27-mer ODN (Eurogentec ref. 21438-DNA batch #2177673, Sequence: 5′-AAC-CGC-AGT-GAC-ACC-CTC-ATC-ATT-ACA-3′) in 650 μM solution in water, and a 27-mer ORN (Eurogentec ref. 21437-RNA batch #2177672, Sequence: 5′-AAC-CGC-AGU-GAC-ACC-CUC-AUC-AUU-ACA-3′) in 952 μM solution in water. 15.4 μL of ODN and 17.5 μL of ORN are mixed and topped up with 67.1 μL of ultrapure water.
# 80 μL of the mixture (8 nmoles) are evaporated until dry and taken up in: 10 μL of water, 5 μL of isatoic anhydride Biot PEG4(SS)IA Me (24); […]), in 480 mM DMF solution, and 5 μL of Triethyl ammonium acetate buffer in 1 M solution in water. The medium is placed in the oven at 65° C. for one hour.
# The medium is then subjected to a triple precipitation with lithium perchlorate LiClO4 and with acetone, in order to free it from the residual BiotPEG4 (SS) IA Me: 18 μL of LiClO4 in 3M solution in water and 262 μL of water are added to the medium. After vortex stirring, 900 μL of acetone are added, then the medium is agitated once again and centrifuged (5 minutes at 13,000 rpm at ambient temperature). The supernatant is then removed carefully and the same method is repeated twice more with 18 μL of LiClO4 and 282 μL of water. Finally, the medium is washed with 900 μL of acetone before stirring and centrifuging. The greater part of the supernatant is removed carefully before drying in the rotary evaporator. […]
smiles,measurement,value
Cn1c(=O)oc(=O)c2cc(NC(=O)CCSSCCNC(=O)CCOCCOCCOCCOCCNC(=O)CCCCC3SCC4NC(=O)NC43)ccc21 (stereo not shown) [5Biot PEG4 SS IA Me 24],initial ORN functionalised,95%
